The text below walks through data of PubChem BioAssay AID248 (DTP/NCI, 2004).

The test concerns L1210 leukemia ip in BDF1 mice, survival T/C. Put plainly: NCI In Vivo Anticancer Drug Screen. Data for tumor model L1210 Leukemia (intraperitoneal) in B6D2F1 (BDF1) mice. Particulars: endpoint: mean survival time, higher = longer survival. In short, it runs like this: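 Mice bearing the transplanted tumor received compound or vehicle. Survival of the treated group was divided by that of the vehicle-treated control group to give the ratio.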

Where [1] appears, read: dose: 100.0 mg/kg/injection, schedule: Q01DX001 (ip), vehicle: saline.
The mark [2] stands for this setting: dose: 200.0 mg/kg/injection, schedule: Q01DX001 (ip), vehicle: saline.
Where [3] appears, read: dose: 400.0 mg/kg/injection, schedule: Q01DX001 (ip), vehicle: saline.
[4] abbreviates: dose: 25.0 mg/kg/injection, schedule: Q01DX009 (ip), vehicle: Klucel (hydroxypropylcellulose) (HPC).
[5] abbreviates: dose: 50.0 mg/kg/injection, schedule: Q01DX009 (ip), vehicle: Klucel (hydroxypropylcellulose) (HPC).
Where [6] appears, read: dose: 100.0 mg/kg/injection, schedule: Q01DX009 (ip), vehicle: Klucel (hydroxypropylcellulose) (HPC).
Where [7] appears, read: dose: 200.0 mg/kg/injection, schedule: Q01DX009 (ip), vehicle: Klucel (hydroxypropylcellulose) (HPC).
Where [8] appears, read: dose: 100.0 mg/kg/injection, schedule: Q04DX003 (ip), vehicle: saline with Tween-80.
[9] abbreviates: dose: 400.0 mg/kg/injection, schedule: Q01DX009 (ip), vehicle: Klucel (hydroxypropylcellulose) (HPC).

Where “and” joins values, the source holds several entries; their conditions need not be identical. Equal values may be shown once. Toxic doses and inconclusive results are not listed.

`CP1(=O)CCC=C1C(=O)O` (stereo unspecified): the T/C under setting [1] was 95 % of control, the T/C under setting [2] was 95 % of control and the T/C under setting [3] is 95 % of control.

For the compound `CC1NC(=O)COC1c1ccccc1` (stereo unspecified), the T/C under setting [4] is 101 % of control, the T/C under setting [5] is 95 % of control, the T/C under setting [6] was 101 % of control and the T/C under setting [7] was 96 % of control.

As for `CC(C)C1N=C(N)N=C(N)N1c1ccc(Cl)c(Cl)c1` (stereo unspecified), the T/C (dose: 75.0 mg/kg/injection, schedule: Q01DX001 (ip), vehicle: saline) is 105 % of control and the T/C (dose: 150.0 mg/kg/injection, schedule: Q01DX001 (ip), vehicle: saline) is 96 % of control.

Turning to `COc1ccc(-c2c(C)nc(N)nc2OC)cc1`, the T/C by setting is: (dose: 100.0 mg/kg/injection, schedule: Q04DX002 (ip), vehicle: saline with Tween-80) 96 % of control; (dose: 200.0 mg/kg/injection, schedule: Q04DX002 (ip), vehicle: saline with Tween-80) 100 % of control; (dose: 400.0 mg/kg/injection, schedule: Q04DX002 (ip), vehicle: saline with Tween-80) 96 % of control.

For `Clc1nn2nnnc2c2ccccc12`, the T/C was 93 % of control (dose: 6.25 mg/kg/injection, schedule: Q04DX002 (ip), vehicle: Klucel (hydroxypropylcellulose) (HPC)); 93 % of control (dose: 12.5 mg/kg/injection, schedule: Q04DX002 (ip), vehicle: Klucel (hydroxypropylcellulose) (HPC)); 96 % of control (dose: 25.0 mg/kg/injection, schedule: Q04DX002 (ip), vehicle: Klucel (hydroxypropylcellulose) (HPC)); 98 % of control (dose: 25.0 mg/kg/injection, schedule: Q04DX003 (ip), vehicle: saline with Tween-80); 101 % of control (dose: 50.0 mg/kg/injection, schedule: Q04DX003 (ip), vehicle: saline with Tween-80); 98 % of control under setting [8].

On to `CC1(C)C2CCC(CCOC(=O)COc3ccc(Cl)cc3Cl)C1C2` (stereo unspecified), for which the T/C (dose: 100.0 mg/kg/injection, schedule: Q01DX009 (ip), vehicle: saline with Tween-80) was 104 % of control and the T/C (dose: 200.0 mg/kg/injection, schedule: Q01DX009 (ip), vehicle: saline with Tween-80) is 94 % of control.

Regarding `COc1cccc(NC(=O)Nc2cccc(C(F)(F)F)c2)c1`, the T/C reads like this: under setting [6], 96 % of control; under setting [7], 101 % of control; under setting [9], 101 % of control.

On to `CCCCn1c(C)cc2c(c1=O)COC(=O)C2(O)CC` (stereo unspecified), for which the T/C is 101 % of control (dose: 2.5 mg/kg/injection, schedule: Q04DX003 (ip), vehicle: saline); 98 % of control (dose: 5.0 mg/kg/injection, schedule: Q04DX003 (ip), vehicle: saline); 100 % of control (dose: 10.0 mg/kg/injection, schedule: Q04DX003 (ip), vehicle: saline); 96 % of control (dose: 20.0 mg/kg/injection, schedule: Q04DX003 (ip), vehicle: saline); 94 % of control (dose: 40.0 mg/kg/injection, schedule: Q04DX003 (ip), vehicle: saline).

On to `O=C(CCCl)N1CCN(C(=O)CCCl)CC1`, for which the T/C is 106 % of control under setting [6]; 103 % of control (dose: 100.0 mg/kg/injection, schedule: Q01DX009 (ip), vehicle: saline); 100 % of control (dose: 100.0 mg/kg/injection, schedule: Q04DX003 (ip), vehicle: Klucel (hydroxypropylcellulose) (HPC)); 119 % of control (dose: 117.32 mg/kg/injection, schedule: Q01DX009 (ip), vehicle: saline); 100 % of control (dose: 148.0 mg/kg/injection, schedule: Q01DX Z (ip), vehicle: methylcellulose (MC)); 100 % of control (dose: 176.0 mg/kg/injection, schedule: Q01DX009 (ip), vehicle: saline). The T/C is 108 % of control under setting [7]; 119 % of control (dose: 200.0 mg/kg/injection, schedule: Q01DX009 (ip), vehicle: saline); 99 % of control (dose: 200.0 mg/kg/injection, schedule: Q04DX003 (ip), vehicle: Klucel (hydroxypropylcellulose) (HPC)); 104 % of control (dose: 222.0 mg/kg/injection, schedule: Q01DX Z (ip), vehicle: methylcellulose (MC)); 116 % of control (dose: 264.0 mg/kg/injection, schedule: Q01DX009 (ip), vehicle: saline); 119 % of control (dose: 333.0 mg/kg/injection, schedule: Q01DX Z (ip), vehicle: methylcellulose (MC)). Moreover, the T/C was 122 % of control under setting [9]; 161 % of control and 167 % of control (dose: 400.0 mg/kg/injection, schedule: Q01DX009 (ip), vehicle: saline); 121 % of control (dose: 400.0 mg/kg/injection, schedule: Q04DX003 (ip), vehicle: Klucel (hydroxypropylcellulose) (HPC)); 97 % of control (dose: 500.0 mg/kg/injection, schedule: Q01DX Z (ip), vehicle: methylcellulose (MC)); 155 % of control (dose: 800.0 mg/kg/injection, schedule: Q01DX009 (ip), vehicle: Klucel (hydroxypropylcellulose) (HPC)).

As for `COC(=O)c1ccc(C(=O)CC(=O)c2ccccc2)cc1.COC(=O)c1ccc(C(=O)CC(=O)c2ccccc2)cc1.COC(=O)c1ccc(C(=O)CC(=O)c2ccccc2)cc1.COC(=O)c1ccc(C(=O)CC(=O)c2ccccc2)cc1.COC(=O)c1ccc(C(=O)CC(=O)c2ccccc2)cc1.[Th]`, the T/C is 89 % of control (dose: 25.0 mg/kg/injection, schedule: Q01DX005 (ip), vehicle: Klucel (hydroxypropylcellulose) (HPC)); 100 % of control under setting [4]; 93 % of control (dose: 50.0 mg/kg/injection, schedule: Q01DX005 (ip), vehicle: Klucel (hydroxypropylcellulose) (HPC)); 100 % of control under setting [5]; 93 % of control and 89 % of control (dose: 100.0 mg/kg/injection, schedule: Q01DX005 (ip), vehicle: Klucel (hydroxypropylcellulose) (HPC)); 93 % of control under setting [6]. In addition, the T/C is, setting by setting: (dose: 100.0 mg/kg/injection, schedule: Q04DX002 (ip), vehicle: Klucel (hydroxypropylcellulose) (HPC)) 96 % of control; (dose: 200.0 mg/kg/injection, schedule: Q04DX002 (ip), vehicle: Klucel (hydroxypropylcellulose) (HPC)) 100 % of control; (dose: 400.0 mg/kg/injection, schedule: Q04DX002 (ip), vehicle: Klucel (hydroxypropylcellulose) (HPC)) 93 % of control.

Regarding `CC(C)C1(C(C)C)S(=O)(=O)CCS1(=O)=O`, the T/C by setting is: under setting [1], 98 % of control; under setting [2], 93 % of control; under setting [3], 102 % of control.

With `CC(Cc1ccc2c(c1)OCO2)[N+](=O)[O-]` (stereo unspecified), the T/C (dose: 150.0 mg/kg/injection, schedule: Q04DX003 (ip), vehicle: saline with Tween-80) is 102 % of control and the T/C (dose: 300.0 mg/kg/injection, schedule: Q04DX003 (ip), vehicle: saline with Tween-80) was 100 % of control.

For `O=C(/C=C/c1ccccc1)N/N=C/c1cccs1`, the T/C under setting [6] was 86 % of control and the T/C under setting [7] is 88 % of control.

Consider `CCN(CC)C(=O)CS(=O)(=O)c1ccc(C)cc1`, for which the T/C runs as follows: under setting [8], 96 % of control; (dose: 200.0 mg/kg/injection, schedule: Q04DX003 (ip), vehicle: saline with Tween-80) 110 % of control; (dose: 400.0 mg/kg/injection, schedule: Q04DX003 (ip), vehicle: saline with Tween-80) 98 % of control.

With `CCCCCC/C=C/[N+]([O-])=NC(COC)C(C)O` (stereo unspecified), the T/C is, setting by setting: (dose: 5.3 mg/kg/injection, schedule: Q01DX Z (ip), vehicle: carboxymethylcellulose (CMC)) 103 % of control; (dose: 8.0 mg/kg/injection, schedule: Q01DX Z (ip), vehicle: carboxymethylcellulose (CMC)) 106 % of control; (dose: 12.0 mg/kg/injection, schedule: Q01DX Z (ip), vehicle: carboxymethylcellulose (CMC)) 101 % of control; (dose: 18.0 mg/kg/injection, schedule: Q01DX Z (ip), vehicle: carboxymethylcellulose (CMC)) 95 % of control.

For the compound `CS(=O)(=O)SCc1ccc([N+](=O)[O-])cc1`, the T/C (dose: 15.0 mg/kg/injection, schedule: Q01DX001 (ip), vehicle: carboxymethylcellulose (CMC)) is 114 % of control; the T/C (dose: 30.0 mg/kg/injection, schedule: Q01DX001 (ip), vehicle: carboxymethylcellulose (CMC)) was 101 % of control; the T/C (dose: 60.0 mg/kg/injection, schedule: Q01DX001 (ip), vehicle: carboxymethylcellulose (CMC)) is 97 % of control.
